The results in this text go back to US20040229246A1, “Diagnostic markers for therapeutic treatment” (Can-Fite Biopharam Ltd., priority 2002, published 2004).

For assay [1], the system named is A3AR, A2AR, PI3K, PKB/Akt, IKKα/β, NF-κB, TNF-α, GSK-3β, caspase-3. As to the kind of experiment: Western blot of A3AR and downstream signaling proteins in DLN and synovial tissue of AIA rats. The assay is classed as in vivo. How it is done:
AIA in Rats: Female Lewis rats, aged 8-12 weeks, obtained from Harlan Laboratories (Jerusalem, Israel), were injected subcutaneously (s.c.) at the tail base with 100 μl of suspension composed of incomplete Freund's adjuvant (IFA) with 10 mg/ml heat killed Mycobacterium tuberculosis, (Mt) H37Ra, (Difco, Detroit, USA). To assess the clinical disease activity score, the animals were inspected every second day for clinical arthritis. The scoring system ranged from 0-4 of each limb: 0-no arthritis; 1-redness or swelling of one toe/finger joint; 2-redness and swelling of more than one toe/finger joints; 3-the ankle and tarsal-metatarsal joints involvement; 4-entire paw redness or swelling. The arthritic score was calculated by adding the four individual legs' score to a maximum of 16. For histological scoring, Animals were sacrificed, the legs were removed up to the knee level, fixed in 10% formaldehyde, decalcified, dehydrated, paraffin-embedded, cut into 4 μm sections and stained by Hematoxylin-Eosin. The assessment of all pathologic findings were performed blind using semi-quantitative grading scales of 0 to 4 for the following parameters: a) extent of inflammatory cells' infiltration to the joint tissues; b) synovial lining cell hyperplasia; c) pannus formation; and d) joint cartilage layers destruction. A fifth parameter, bone damage and erosion, was graded 0-5: 0-normal; 1-minimal loss of cortical bone at a few sites; 2-mild loss of cortical trabecular bone; 3-moderate loss of bone at many sites; 4-marked loss of bone at many sites; 5-marked loss of bone at many sites with fragmenting and full thickness penetration of inflammatory process or pannus into the cortical bone The mean of all the histological parameters scores were designated “Histology Score”. TNF-α was measured in synovia, DLN and spleen tissues derived from control and CF101 treated rats. To detect the level of expression of TNF-α, WB analysis was performed. Spleen and DLN mononuclear cells and synovial tissue were rinsed with ice-cold PBS and transferred to ice-cold lysis buffer (TNN buffer, 50 mM Tris buffer pH=7.5, 150 mM NaCl, NP 40 0.5% for 20 minutes). Cell debris was removed by centrifugation for 10 minutes, at 7500 g. The supernatant was utilized for WB analysis. Protein concentrations were determined using the Bio-Rad protein assay dye reagent. Equal amounts of the sample (50 μg) were separated by SDS-PAGE, using 12% polyacrylamide gels. The resolved proteins were then electro-blotted onto nitrocellulose membranes (Schleicher & Schuell, Keene, NH, USA). Membranes were blocked with 1% bovine serum albumin and incubated with polyclonal goat anti-rat TNF-α antibodies (dilution 1:1000) (Santa Cruz Biotechnology Inc., CA, USA) for 24 hours at 4° C. Blots were then washed and incubated with rabbit anti-goat polyclonal antibodies for 1 hour at room temperature. Bands were recorded using BCIP/NBT color development kit (Promega, Madison, Wis., USA). Densitometry of protein expression was normalized against β-actin and expressed as % of control.
Adjuvant induced arthritis (AIA) was induced in rats as described above. Rats were treated orally twice daily with either (i) vehicle (these rats serving as control), (ii) 10 μg/kg IB-MECA or with (ii) the specific A3AR […] MRS 1220 followed 30 minutes later by IB-MECA. The […] were sacrificed on day 28 for histological scoring and measurement of signaling proteins and TNF-α.
For orientation: Immunoblotting shows a protein as a band on a membrane.

In the next assay the test system is A3AR. As to the kind of experiment: RT-PCR detection of A3AR on human neutrophils. The assay is classed as cell-based. The conditions noted are these: incubated for 15 minutes at 37° C. How it is done:
Tissue sections (5 μm thick) on slides that, stained by H&E were observed by a pathologist. The neoplastic area and the normal area were detected and each one marked separately. The neoplastic tissue and the normal tissue were collected to different microcentrifuge tubes. The samples were treated with proteinase K at a final concentration of 0.1 mg/ml and incubated at 37° C. for 1 hour to allow for […]. Cells lysate were heated to 95° C. for 15 minutes in order to inactivate DNase and proteinase K. Following centrifugation at 14,000 RPM for 5 minutes, 17 μl of the supernatant was transferred to separate tube and 4 μl of RT mixture. 5 mM dNTPs, 2.5 μM random hexamer, 5 U RNasin, 100 U SuperScript One Step RT-PCR with Platinum Taq (Invitrogene) were added.
The RT reaction was performed at 45° C. for 45 minutes. […]
10×10^6 neutrophil cells isolated from 20 ml of human blood were incubated for 15 minutes with […] of CF101 at 37° C. […] RNA level was quantified using spectrophotometer and […] from each sample were subjected to RT-PCR using SuperScript One Step RT-PCR with Platinum Taq (Invitrogene), as described above in section E., by using the set No II as primers for amplification of 361 bp fragment. RT-PCR products were detected by electrophoresis and the size was verified by comparing with known RNA. […]

The structures appear in SMILES notation.

For `CNC(=O)[C@H]1O[C@@H](n2cnc3c(NCc4cccc(I)c4)ncnc32)[C@H](O)[C@@H]1O` [IB-MECA, 1-deoxy-1-[6[[(3-iodophenyl)methyl]amino]-9H-purine-9-yl]-N-methyl-β-D-ribofura-nuronaminde], in assay [1] (DLN), the GSK-3β level result is listed as “up-regulation”, the PI3K level result is listed as “down-regulation” and the caspase-3 level entry is reported as “up-regulation”. For the same molecule, in assay [1] (DLN and synovial tissue), the IKKα/β level result was “down-regulation”, the NF-κB level entry is given as “down-regulation” and the TNF-α level result is “down-regulation”. In addition, in assay [1] (DLN, Western blot), the “level of the A2 adenosine receptor (A2AR)” value is on record as “no effect” and the “level of the A3AR” value is reported as “down-regulation”. The PKB/Akt level entry in assay [1] (DLN, protein expression and activity) is reported as “down-regulation”. Besides, in the assay on A3AR, the “expression of A3AR (RT-PCR)” value was “increase”.
